{"source": "ChEMBL document CHEMBL1150070", "about": "“A novel cytotoxic macrolide, superstolide B, related to superstolide A, from the New Caledonian marine sponge Neosiphonia superstes” (J Nat Prod, 1994)", "format_in_all_cases": "functional, cell-based", "key": {"KB": {"test_system": "KB", "test": "Cytotoxicity against human KB cells"}, "P388": {"test_system": "P388", "test": "Cytotoxicity against mouse P388 cells"}, "[1]": {"test": "Cytotoxicity against human NSCLC-N6-L16 cells"}}}
{"smiles": "CO[C@@H]1C[C@H](OC(N)=O)[C@@H]2C=C[C@@H]3/C=C(C)/C=C/[C@@H](C)[C@H](/C(C)=C/[C@@H](C)NC(C)=O)OC(=O)/C=C/C=C(C)\\C=C\\[C@]3(C)[C@@H]2C1", "note": "[SUPERSTOLIDE B]", "values": [{"measurement": "IC50", "setting": "KB", "value": 5, "unit": "ng/mL"}, {"measurement": "IC50", "setting": "P388", "value": 3, "unit": "ng/mL"}, {"measurement": "IC50", "setting": "[1]", "value": 39, "unit": "ng/mL"}]}
